{
  "source": "paper PMC6588697",
  "about": "“Lugdunin amplifies innate immune responses in the skin in synergy with host- and microbiota-derived factors” (Nature Communications, 2019)",
  "key": {"[1]": {"tested_on": "S. aureus", "assay": "Adhesion and invasion assay: S. aureus on pretreated PHKs (CFU)", "format": "cell-based, Staphylococcus aureus", "settings": "lugdunin alone; text to Fig 1a", "experimental": "Fig. 1 Lugdunin sensitizes epithelial cells for innate immune defense. a Primary human keratinocytes (PHKs) were pretreated with S. epidermidis conditioned medium (CM), indicated lugdunin concentrations, or the combination of both for 20 h. Subsequently, cells were infected with S. aureus for 1.5 h followed by cell lysis and determination of colony-forming units (CFUs). Shown is one representative experiment of three independent experiments with six technical replicates ± s.e.m. n.s., not significant. b Dorsal skin of mice was pretreated with S. epidermidis CM, 1.5 µg lugdunin alone or in combination with S. epidermidis CM for 24 h. Subsequently, S. aureus CFUs were determined. Horizontal lines represent the mean of each group ± s.e.m. c PHKs were treated with 2 μM lugdunin or with S. epidermidis CM alone or in combination for 20 h and subsequently expression of indicated antimicrobial peptides (AMPs) (respective protein names in brackets) was analyzed and normalized to actin. Shown is one representative experiment of three independent experiments with two technical replicates ± s.e.m. d PHKs were treated with 2 µM lugdunin or 100 ng/mL Pam2Cys for 5 h and subsequently the concentration of indicated cytokines in the supernatant was analyzed by LEGENDplex^TM (BioLegend). […]"}, "[2]": {"tested_on": "HEK293 cells", "assay": "CXCL8 release by HEK-control cells (LEGENDplex)", "format": "cell-based, human", "settings": "lugdunin 2 µM, 5 h, two technical replicates, Fig 2a", "experimental": "Fig. 2 Induction of chemokine (C-X-C motif) ligand 8/macrophage inflammatory protein-2 (CXCL8/MIP-2) by lugdunin is TLR2/MyD88-dependent. a HEK-control or HEK-TLR2 cells were treated with 2 μM lugdunin for 5 h and subsequently the CXCL8 concentration in the supernatant was analyzed by LEGENDplex^TM (BioLegend). Shown is one representative experiment of three independent experiments with two technical replicates ± s.e.m. b HEK-control or HEK-TLR2 cells were treated with increasing concentrations of lugdunin for 5 h and subsequently expression of CXCL8 was analyzed and normalized to actin. Shown is one representative experiment of three independent experiments with two technical replicates ± s.e.m. c Schematic overview of the mouse experiments: 6–8-week-old female C5BL/6 WT, MyD88-knockout (ko), or 5xTLR-ko mice were epicutaneously treated with 1.5 µg lugdunin or phosphate-buffered saline (PBS) as a control. […] Significant differences to control treatments were analyzed by an unpaired two-tailed t test (*P < 0.05; **P < 0.01; ***P < 0.001). f Representative MIP-2-stained paraffin-embedded mouse skin sections. […]\nSupplementary Figure 2: CXCL8 controls and other cytokines in mouse skin 46 a: HEK-control cells or HEK -TLR2 cells were treated with 100 ng/mL Pam2Cys for 5 47 hours and subsequently the CXCL8 concentration in the supernatant was analyzed. […]"}},
  "note": "Values joined by “and” are separate entries in the source; they are usually repeats but may differ in a detail not shown here. Equal values may be shown once.",
  "data": [
    {"substance": "Lugdunin", "values": [
      {"measurement": "lugdunin concentration at which pretreatment of PHKs significantly reduced the number of adhering S. aureus", "setting": "[1]", "result": "≥ 2", "unit": "µM"},
      {"measurement": "CXCL8 concentration in supernatant", "setting": "[2]", "result": "39.328 and 39.600"}
    ]}
  ]
}
